Laboratory results from ChEMBL document CHEMBL5608246, “Membrane-Targeting Amphiphilic Honokiol Derivatives Containing an Oxazole Moiety as Potential Antibacterials against Methicillin-Resistant Staphylococcus aureus” (J Med Chem, 2024).
Activity calls are given as the source filed them. The rule behind the calls is not given here.

What was measured:
[1] = Toxicity in Kunming mouse skin abscess model infected with methicillin resistant Staphylococcus aureus assessed as kidneys damage at 5 mg/kg, sc measured after 2 hrs by H and E staining based assay; assay type: organism-based; details: in vivo
[2] = Toxicity in Kunming mouse skin abscess model infected with methicillin resistant Staphylococcus aureus assessed as lungs damage at 5 mg/kg, sc measured after 2 hrs by H and E staining based assay; assay type: organism-based; details: in vivo
[3] = Toxicity in Kunming mouse skin abscess model infected with methicillin resistant Staphylococcus aureus assessed as spleen damage at 5 mg/kg, sc measured after 2 hrs by H and E staining based assay; assay type: organism-based; details: in vivo
Staphylococcus aureus [4] = test: Antibacterial activity against methicillin resistant Staphylococcus aureus 20 infected in Kunming mouse skin abscess model assessed as reduction in bacterial load at 5 mg/kg, sc measured after 2 hrs; assay type: functional; design: scale not given: the % may be the effect or the level left
Staphylococcus aureus [5] = test: Bactericidal activity against Staphylococcus aureus ATCC 29213 at 8 times MIC within 8 hrs by time kill assay; assay type: functional, organism-based
[6] = Toxicity in Kunming mouse skin abscess model infected with methicillin resistant Staphylococcus aureus assessed as liver damage at 5 mg/kg, sc measured after 2 hrs by H and E staining based assay; assay type: organism-based; details: in vivo
Staphylococcus aureus [7] = test: Antibacterial activity against methicillin resistant Staphylococcus aureus 20 infected in Kunming mouse skin abscess model assessed as reduction in IL-6 level at 5 mg/kg, sc measured after 2 hrs by ELISA; assay type: functional, organism-based
[8] = Toxicity in Kunming mouse skin abscess model infected with methicillin resistant Staphylococcus aureus assessed as heart damage at 5 mg/kg, sc measured after 2 hrs by H and E staining based assay; assay type: organism-based; details: in vivo
Staphylococcus aureus [9] = test: Antibacterial activity against methicillin resistant Staphylococcus aureus 20 infected in Kunming mouse skin abscess model assessed as reduction in inflammatory cells in infection sites at 5 mg/kg, sc measured after 2 hrs; assay type: functional, organism-based
Staphylococcus aureus [10] = test: Antibacterial activity against methicillin resistant Staphylococcus aureus 20 infected in Kunming mouse skin abscess model assessed as reduction in TNF-alpha level at 5 mg/kg, sc measured after 2 hrs by ELISA; assay type: functional, organism-based
Staphylococcus aureus [11] = test: Antibacterial activity against Staphylococcus aureus ATCC 29213 assessed as resistance development by measuring fold increase in MIC after 20 passages incubated for 16 to 18 hrs; assay type: functional; details: time 16-18 hrs
Staphylococcus aureus [12] = test: Antibacterial activity against methicillin resistant Staphylococcus aureus M14 incubated for 16 to 18 hrs by broth dilution method; assay type: functional; details: time 16-18 hrs
Staphylococcus aureus [13] = test: Antibacterial activity against methicillin resistant Staphylococcus aureus M16 incubated for 16 to 18 hrs by broth dilution method; assay type: functional; details: time 16-18 hrs
Staphylococcus aureus [14] = test: Antibacterial activity against methicillin resistant Staphylococcus aureus M23 incubated for 16 to 18 hrs by broth dilution method; assay type: functional; details: time 16-18 hrs
Staphylococcus aureus [15] = test: Antibacterial activity against methicillin resistant Staphylococcus aureus M20 incubated for 16 to 18 hrs by broth dilution method; assay type: functional; details: time 16-18 hrs
Staphylococcus aureus [16] = test: Antibacterial activity against methicillin resistant Staphylococcus aureus M22 incubated for 16 to 18 hrs by broth dilution method; assay type: functional; details: time 16-18 hrs
Staphylococcus aureus [17] = test: Antibacterial activity against methicillin resistant Staphylococcus aureus M13 incubated for 16 to 18 hrs by broth dilution method; assay type: functional; details: time 16-18 hrs
Staphylococcus aureus [18] = test: Antibacterial activity against methicillin resistant Staphylococcus aureus M21 incubated for 16 to 18 hrs by broth dilution method; assay type: functional; details: time 16-18 hrs
Staphylococcus aureus [19] = test: Antibacterial activity against methicillin resistant Staphylococcus aureus M12 incubated for 16 to 18 hrs by broth dilution method; assay type: functional; details: time 16-18 hrs
Escherichia coli = test: Antibacterial activity against Escherichia coli ATCC 25922 incubated for 16 to 18 hrs by broth dilution method; assay type: functional; details: time 16-18 hrs
Staphylococcus aureus [20] = test: Antibacterial activity against methicillin resistant Staphylococcus aureus M17 incubated for 16 to 18 hrs by broth dilution method; assay type: functional; details: time 16-18 hrs
[21] = Selectivity index, ratio of HC50 for sheep RBC to MIC for Staphylococcus aureus ATCC 29213; assay type: toxicity; details: sheep red blood cells, read-out: Selectivity Index
Staphylococcus aureus [22] = test: Antibacterial activity against methicillin resistant Staphylococcus aureus M11 incubated for 16 to 18 hrs by broth dilution method; assay type: functional; details: time 16-18 hrs
[23] = Hemolytic activity in sheep RBC incubated for 1 hr; assay type: toxicity, cell-based, Ovis aries, Erythrocyte; details: sheep red blood cells (erythrocytes)
Staphylococcus aureus [24] = test: Antibacterial activity against methicillin resistant Staphylococcus aureus N315 incubated for 16 to 18 hrs by broth dilution method; assay type: functional; details: time 16-18 hrs
Staphylococcus aureus [25] = test: Antibacterial activity against Staphylococcus aureus ATCC 29213 incubated for 16 to 18 hrs by broth dilution method; assay type: functional; details: time 16-18 hrs
Cell membrane = test: Induction of membrane permeability in methicillin resistant Staphylococcus aureus 20 at 32 ug/ml measured at 2 mins interval over 20 mins by SYTOX green staining based assay; details: dose 32.0 µg/ml

Row | SMILES | MIC (Staphylococcus aureus [12]) [µg/mL] | MIC (Staphylococcus aureus [13]) [µg/mL] | MIC (Staphylococcus aureus [14]) [µg/mL] | MIC (Staphylococcus aureus [15]) [µg/mL] | MIC (Staphylococcus aureus [16]) [µg/mL] | MIC (Staphylococcus aureus [17]) [µg/mL] | MIC (Staphylococcus aureus [18]) [µg/mL] | MIC (Staphylococcus aureus [19]) [µg/mL] | MIC (Escherichia coli) [µg/mL] | MIC (Staphylococcus aureus [20]) [µg/mL] | selectivity ratio [21] | MIC (Staphylococcus aureus [22]) [µg/mL] | HC50 at 1 h [23] [µg/mL] | MIC (Staphylococcus aureus [24]) [µg/mL] | MIC (Staphylococcus aureus [25]) [µg/mL] | also measured
1 | CN[C@H](CC(C)C)C(=O)N[C@H]1C(=O)N[C@@H](CC(N)=O)C(=O)N[C@H]2C(=O)N[C@H]3C(=O)N[C@H](C(=O)N[C@H](C(=O)O)c4cc(O)cc(O)c4-c4cc3ccc4O)[C@H](O)c3ccc(c(Cl)c3)Oc3cc2cc(c3O[C@@H]2O[C@H](CO)[C@@H](O)[C@H](O)[C@H]2O[C@H]2C[C@](C)(N)[C@H](O)[C@H](C)O2)Oc2ccc(cc2Cl)[C@H]1O [VANCOMYCIN] | – | – | – | – | – | – | – | – | – | – | – | – | – | – | – | Activity [1]: Non-Toxic; Activity [2]: Non-Toxic; Activity [3]: Non-Toxic; Activity (Staphylococcus aureus [4]): 95.62%; Activity (Staphylococcus aureus [5]): inactive; Activity [6]: Non-Toxic; Activity (Staphylococcus aureus [7]): Active; Activity [8]: Non-Toxic; Activity (Staphylococcus aureus [9]): Active; Activity (Staphylococcus aureus [10]): Active
2 | CCn1cc(C(=O)O)c(=O)c2cc(F)c(N3CCNCC3)cc21 [NORFLOXACIN] | – | – | – | – | – | – | – | – | – | – | – | – | – | – | – | fold change (FC) (Staphylococcus aureus [11]): 128
3 | C=CCc1cc(-c2ccc(OCCC[N+](C)(C)CC(=O)NCCCC)c(CC=C)c2)c2oc(-c3ccc(F)c(Br)c3)nc2c1.[Br-] | 8 | 16 | 16 | 8 | 32 | 8 | 8 | 16 | 128 | 16 | 0.4 | 8 | 48.5 | 128 | 128 | –
4 | C=CCc1cc(-c2ccc(OCCC[N+](C)(C)CC(=O)NCCCC)c(CC=C)c2)c2oc(-c3cccc(OC)c3)nc2c1.[Br-] | 8 | 8 | 8 | 8 | 16 | 16 | 8 | 16 | > 128 | 8 | 9.6 | 8 | 307 | 8 | 32 | –
5 | CC[C@H](C)[C@H](NC(=O)CN)C(=O)NCC(=O)N[C@@H](C)C(=O)N[C@H](C(=O)N[C@@H](CC(C)C)C(=O)N[C@@H](CCCCN)C(=O)N[C@H](C(=O)N[C@@H](CC(C)C)C(=O)N[C@H](C(=O)N[C@H](C(=O)NCC(=O)N[C@@H](CC(C)C)C(=O)N1CCC[C@H]1C(=O)N[C@@H](C)C(=O)N[C@@H](CC(C)C)C(=O)N[C@H](C(=O)N[C@@H](CO)C(=O)N[C@@H](Cc1c[nH]c2ccccc12)C(=O)N[C@H](C(=O)N[C@@H](CCCCN)C(=O)N[C@@H](CCCNC(=N)N)C(=O)N[C@@H](CCCCN)C(=O)N[C@@H](CCCNC(=N)N)C(=O)N[C@@H](CCC(N)=O)C(=O)N[C@@H](CCC(N)=O)C(N)=O)[C@@H](C)CC)[C@@H](C)CC)[C@@H](C)O)[C@@H](C)O)C(C)C)C(C)C | – | – | – | – | – | – | – | – | – | – | – | – | – | – | – | Activity (Cell membrane): Active
